Reference: patent US20180177749A1, “USE OF CYP EXPRESSION TO DIRECT THERAPEUTIC INTERVENTION IN CANCER” (REGENTS OF THE UNIVERSITY OF MINNESOTA, priority 2016, published 2018)
Where two headings read alike, the source gives them in different places.

Assays:
MCF-7 xenograft = test system: MCF-7 xenograft
Protocol: 17-β-estradiol (E2) was given in drinking water at 1 μM beginning the day of tumor implantation. […] Tumors were collected from each mouse after sacrifice and endpoint tumor weights were measured.
N=20 mice per arm for each study; error bars represent SEM.
In the HBB dose optimization model, mammary fat pad injection was performed with the MCF-7 cell line as described above, and tumors were allowed to grow until an average tumor volume of 50 mm^3. Mice were randomized, and tumor growth was monitored. Estradiol (1 μM) was present in the drinking water as above. Cremophor was administered weekly in the vehicle and HBB groups so that paclitaxel could be used in subsequent chemotherapy synergy studies (unpublished data). Mice were dosed at 6 mg/kg/day ip 4 days of 7 with no more than 2 consecutive days dosing and weighed daily. […] Tumors were harvested at the endpoint of the study following sacrifice by isoflurane anesthesia followed by cervical dislocation. Organs were harvested for histopathological assay of end organ toxicity.

MDA-MB-231 cells = test: JC-1 mitochondrial membrane potential staining, MDA-MB-231; assay type: cell-based, human; settings: HBB 20 μM 4 hours, (±)-14,15-EET 1 μM
Protocol: Cells were grown in chamber slides at 37° C. with 5% CO2 and treated with DMSO or HBB for 4 hours before JC-1 dye was added for the MCF-7 or MDA-MB-231 cell line. […] Images of red fluorescence (590 nm) and green fluorescence (530 nm) were acquired using an Olympus 1X70 microscope fitted with an Olympus DP70 digital camera (Olympus, Tokyo, Japan).

MCF-7 cells = test: Cellular EET levels by LC-ESI/MS/MS; assay type: cell-based, human; settings: metformin 5 mM, 6 hours
Protocol: Samples were submitted to liquid chromatography-electrospray ionization/multiple reaction monitoring/mass spectrometry (LC-ESI/MRM/MS) analysis in a Thermo Electron Quantum Discovery Max triple quadrupole mass spectrometer (Thermo Finnigan, San Jose, Calif.) coupled with an Agilent 1100 HPLC (Santa Clara, Calif.), using argon as the collision gas. Negative ion monitoring was performed at the following diagnostic product ions: 319 m/z→155 m/z for 8,9-EET; 319 m/z→179 m/z for 11,12-EET; 319 m/z→219 m/z for 14,15-EET; 339 m/z→163 m/z for 8,9-[13C20]EET; 339 m/z→233 m/z for 11,12-[13C20]EET; and 339 m/z→259 m/z for 14,15-[^13C20]EET. Base-line resolution of EET regioisomers was achieved on a Phenomenex Luna C18 (2) reverse phase capillary column (250×0.5 mm, 5-μm particles) using the following mobile phase combinations: isocratic 5% B for 5 min, gradient 5-70% B for 5 min, hold at 70% for 30 min and then 95% for 10 min; A: 0.01% acetic acid in water, B: 0.01% acetic acid in acetonitrile; […] flow rate. A standard curve was obtained by linear regression of the peak area ratio of authentic EET regioisomers against internal standards. The amount of EETs in samples was calculated according to the standard curve. The (±)-5,6-EET regioisomer was not measured because it undergoes rapid internal degradation. […]

MDA-MB-435/LCC6 = test: Measurement of OCR and ECAR, MDA-MB-435/LCC6; assay type: cell-based; settings: 20 and 40 μM
Protocol: (§1) Cells were maintained in growth medium consisting of 10% FBS at 37° C. with 5% CO2 and seeded at 100,000 cells per well in XF24-well cell culture microplates (Seahorse Bioscience, North Billirica, Mass.). Concentrated stocks of HBB were prepared in DMSO. HBB was diluted to 10× working concentration in XF assay medium (a non-buffered medium including 2 mM L-glutamine but no sodium bicarbonate (buffering agent), glucose, or sodium pyruvate). Assays were performed in the XF Extracellular Flux Analyzer (Seahorse Bioscience that measures uptake and excretion of metabolic end products in real time). Oxygen consumption rate (OCR) and extracellular acidification rate (ECAR) were measured using an XF Assay Kit. OCR is reported in pmoles/minute and ECAR in mpH/minute. Before analysis, the cells were switched from culture medium to XF assay medium. After baseline measurements, 75 μl of HBB prepared in assay medium was injected into each well to reach final working concentrations. After addition of HBB, OCR and ECAR were measured at 18-minute intervals. There were 5 replicates was performed for each data point for MCF-7, MDA-MB-231, T47D and MDA-MB-435 cell lines. There were 6 replicates for the studies of the 3-18 and 4-14 cell lines.

CYP4A11 = biological target: T1, CYP4A11 (Homo sapiens, UniProt Q02928); test: CYP4A11-mediated EET biosynthesis; assay type: biochemical; settings: 25 to 100 uM
T1 sequence (Q02928 5-519): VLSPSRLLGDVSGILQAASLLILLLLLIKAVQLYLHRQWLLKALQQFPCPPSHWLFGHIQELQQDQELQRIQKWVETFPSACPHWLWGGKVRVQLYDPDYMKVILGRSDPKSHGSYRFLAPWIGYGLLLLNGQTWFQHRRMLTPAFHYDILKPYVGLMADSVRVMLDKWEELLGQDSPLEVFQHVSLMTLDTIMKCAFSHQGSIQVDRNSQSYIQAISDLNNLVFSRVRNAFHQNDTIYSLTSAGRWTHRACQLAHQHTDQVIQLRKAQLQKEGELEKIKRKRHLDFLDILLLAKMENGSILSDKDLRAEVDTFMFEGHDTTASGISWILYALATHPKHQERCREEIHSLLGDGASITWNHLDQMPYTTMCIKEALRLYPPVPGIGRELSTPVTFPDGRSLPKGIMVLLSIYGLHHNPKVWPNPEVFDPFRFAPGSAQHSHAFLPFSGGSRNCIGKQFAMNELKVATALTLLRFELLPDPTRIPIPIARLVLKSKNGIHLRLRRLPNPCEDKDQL

T47D = test: Measurement of OCR and ECAR, T47D; assay type: cell-based, human; settings: 20 and 40 μM
Protocol: as §1

MCF-10A = test: Cell growth inhibition, MCF-10A non-transformed breast cell line; assay type: cell-based; settings: Homo sapiens, ER−[PR−]

## CCCCCCNC(=N)NC(=N)NCc1ccccc1 [HBB, N1-hexyl-N5-benzyl-biguanide]
MCF-7 xenograft; 4 mg/kg/day ip
  end point tumor weights lower than control: 34%
  tumor growth: slower growth
MCF-7 xenograft; 4 mg/kg/day ip, n=19
  end point tumor weight (mean±SEM): 220 ± 35 mg
MCF-7 xenograft; 6 mg/kg ip 4 of 7 days (24 mg/kg/week), from 50 mm^3
  tumor growth: significant reduction of tumor growth
MCF-7 xenograft; 24 mg/kg/week ip
  end point tumor weights lower than PBS group: 48%
MCF-7 xenograft; 24 mg/kg/week ip, n=13
  end point tumor weight (mean±SEM): 127 ± 16 mg
MCF-7 xenograft; mouse, in vivo, ip, 6 mg/kg/day
  weight decline vs. control: > 5%
MDA-MB-231 cells
  mitochondrial membrane potential (ΔΨm), JC-1: caused mitochondrial depolarization
MCF-7 cells
  cellular EET levels: doesn't lower total EET levels
MDA-MB-435/LCC6
  reduction of OCR and ECAR: significant vs. vehicle
CYP4A11
  inhibition of EET production by CYP4A11: only weakly
T47D
  reduction of OCR and ECAR: significant vs. vehicle
MCF-10A
  IC50: 20.5 µM
